Results as given in patent US12612416B2, “Modulators of cystic fibrosis transmembrane conductance regulator” (VERTEX PHARMACEUTICALS INCORPORATED, priority 2020, dated 2026).
Where two headings read alike, the source gives them in different places.

Columns and labels:
F508del in NIH 3T3 cells = molecular target: T1, F508del in NIH 3T3 cells (Homo sapiens, UniProt P13569, DEL508-508); assay: 3T3 assay: membrane potential optical assay for F508del correction; format: cell-based, mouse; details: F508del NIH 3T3 cells; for EC50: compound incubation 18-24 hours at 37° C., forskolin activation; for 3T3 Max Activity: efficacy compared to lumacaftor in combination with acutely added 300 nM Ivacaftor
T1 construct: expressed in transfected cells
T1 sequence (P13569 with tags, fused parts or gaps DEL508-508): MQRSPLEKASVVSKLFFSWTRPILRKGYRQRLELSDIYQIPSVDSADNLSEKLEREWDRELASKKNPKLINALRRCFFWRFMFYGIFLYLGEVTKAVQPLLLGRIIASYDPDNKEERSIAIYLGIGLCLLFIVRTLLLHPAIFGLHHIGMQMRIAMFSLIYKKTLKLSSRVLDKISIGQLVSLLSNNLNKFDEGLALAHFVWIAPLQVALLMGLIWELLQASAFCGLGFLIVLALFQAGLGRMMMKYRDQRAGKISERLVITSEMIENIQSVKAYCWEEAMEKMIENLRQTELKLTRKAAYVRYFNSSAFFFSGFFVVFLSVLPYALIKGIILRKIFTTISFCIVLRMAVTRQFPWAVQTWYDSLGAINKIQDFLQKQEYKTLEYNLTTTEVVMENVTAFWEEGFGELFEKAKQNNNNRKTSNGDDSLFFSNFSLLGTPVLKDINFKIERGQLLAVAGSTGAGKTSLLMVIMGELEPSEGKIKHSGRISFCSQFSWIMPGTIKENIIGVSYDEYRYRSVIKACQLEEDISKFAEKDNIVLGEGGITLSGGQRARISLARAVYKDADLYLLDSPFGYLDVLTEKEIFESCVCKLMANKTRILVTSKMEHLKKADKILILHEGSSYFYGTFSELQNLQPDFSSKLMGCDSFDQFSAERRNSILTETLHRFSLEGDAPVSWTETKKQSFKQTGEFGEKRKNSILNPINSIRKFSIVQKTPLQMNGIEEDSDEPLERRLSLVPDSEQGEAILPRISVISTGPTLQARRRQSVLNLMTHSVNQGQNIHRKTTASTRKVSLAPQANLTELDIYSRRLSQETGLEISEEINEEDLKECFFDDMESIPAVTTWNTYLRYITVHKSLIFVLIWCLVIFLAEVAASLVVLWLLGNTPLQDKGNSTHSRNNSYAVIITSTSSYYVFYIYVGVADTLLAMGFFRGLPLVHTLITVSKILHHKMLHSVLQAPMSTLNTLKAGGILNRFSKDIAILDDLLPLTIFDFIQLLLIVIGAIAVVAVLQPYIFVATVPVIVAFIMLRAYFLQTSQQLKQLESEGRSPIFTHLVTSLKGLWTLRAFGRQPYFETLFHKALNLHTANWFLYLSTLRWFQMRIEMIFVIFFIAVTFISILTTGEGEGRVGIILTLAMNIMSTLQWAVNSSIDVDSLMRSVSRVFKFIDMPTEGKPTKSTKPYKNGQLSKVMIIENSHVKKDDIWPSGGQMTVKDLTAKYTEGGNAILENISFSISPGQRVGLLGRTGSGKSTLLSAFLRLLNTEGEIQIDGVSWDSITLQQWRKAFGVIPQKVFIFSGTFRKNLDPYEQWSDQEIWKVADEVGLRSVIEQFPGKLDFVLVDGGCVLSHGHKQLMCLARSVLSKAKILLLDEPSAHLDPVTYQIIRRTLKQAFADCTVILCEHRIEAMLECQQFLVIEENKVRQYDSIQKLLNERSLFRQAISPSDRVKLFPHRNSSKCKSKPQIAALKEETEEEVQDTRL
Text: The assay utilizes fluorescent voltage sensing dyes to measure changes in membrane potential using a fluorescent plate reader (e.g., FLIPR III, Molecular Devices, Inc.) as a readout for increase in functional F508del in NIH 3T3 cells. The driving force for the response is the creation of a chloride ion gradient in conjunction with channel activation by a single liquid addition step after the cells have previously been treated with compounds and subsequently loaded with a voltage sensing dye.
To identify correctors of F508del, a single-addition HTS assay format was developed. This HTS assay utilizes fluorescent voltage sensing dyes to measure changes in membrane potential on the FLIPR III as a measurement for increase in gating (conductance) of F508del in F508del NIH 3T3 cells. The F508del NIH 3T3 cell cultures were incubated with the corrector compounds at a range of concentrations for 18-24 hours at 37° C., and subsequently loaded with a redistribution dye. The driving force for the response is a Cl^− ion gradient in conjunction with channel activation with forskolin in a single liquid addition step using a fluorescent plate reader such as FLIPR III.
Bath Solution #1: (in mM) NaCl 160, KCl 4.5, CaCl2) 2, MgCl2 1, HEPES 10, pH 7.4 with NaOH.
Chloride-free bath solution: Chloride salts in Bath Solution #1 (above) are substituted with gluconate salts.
NIH3T3 mouse fibroblasts stably expressing F508del are used for optical measurements of membrane potential. The cells are maintained at 37° C. in 5% CO2 and 90% humidity in Dulbecco's modified Eagle's medium supplemented with 2 mM glutamine, 10% fetal bovine serum, 1×NEAA, b-ME, 1×pen/strep, and 25 mM HEPES in 175 cm^2 culture flasks. For all optical assays, the cells were seeded at ˜20,000/well in 384-well Matrigel-coated plates. For the correction assays, the cells are cultured at 37° C. with and without compounds for 16-24 hours.

[1] = amide bond, DMF
[2] = molecular target: T2, CFTR-mediated short-circuit current in F508del/MF-HBE cells (Homo sapiens, UniProt P13569, DEL508-508); assay: HBE assay: Ussing chamber assay of CFTR-mediated short-circuit currents; format: cell-based; details: 20% human serum
T2 construct: endogenous in cells; host or cells: primary human bronchial epithelial cells from CF subjects (F508del/MF)
T2 sequence (P13569 with tags, fused parts or gaps DEL508-508): as above
Procedure: Ussing chamber experiments were performed using human bronchial epithelial (HBE) cells derived from CF subjects heterozygous for F508del and a minimal function CFTR mutation (F508del/MF-HBE) and cultured as previously described (Neuberger T, Burton B, Clark H, Van Goor F Methods Mol Biol 2011:741:39-54). After four days the apical media was removed, and the cells were grown at an air liquid interface for >14 days prior to use.
To isolate the CFTR-mediated short-circuit (ISC) current, F508del/MF-HBE grown on Costar® Snapwell™ cell culture inserts were mounted in an Ussing chamber and the transepithelial ISC was measured under voltage-clamp recording conditions (Vhold=0 mV) at 37° C. The basolateral solution contained (in mM) 145 NaCl, 0.83K2HPO4, 3.3 KH2PO4, 1.2 MgCl2, 1.2 CaCl2), 10 Glucose, 10 HEPES (pH adjusted to 7.4 with NaOH) and the apical solution contained (in mM) 145 NaGluconate, 1.2 MgCl2, 1.2 CaCl2), 10 glucose, 10 HEPES (pH adjusted to 7.4 with NaOH) and 30 μM amiloride to block the epithelial sodium channel. Forskolin (20 μM) was added to the apical surface to activate CFTR, followed by apical addition of a CFTR inhibitor cocktail consisting of BPO, GlyH-101, and CFTR inhibitor 172 (each at 20 μM final assay concentration) to specifically isolate CFTR currents. The CFTR-mediated ISC (μA/cm^2) for each condition was determined from the peak forskolin response to the steady-state current following inhibition.
The activity of the CFTR corrector compounds on the CFTR-mediated ISC was determined in Ussing chamber studies as described above. The F508del/MF-HBE cell cultures were either incubated with the corrector compounds at a range of concentrations in combination with 1 μM Ivacaftor or were incubated with the corrector compounds at a single fixed concentration of 10 μM in combination with 1 μM Ivacaftor for 18-24 hours at 37° C. and in the presence of 20% human serum. The concentration of corrector compounds with 1 μM Ivacaftor during the 18-24 hours incubations was kept constant throughout the Ussing chamber measurement of the CFTR-mediated ISC to ensure compounds were present throughout the entire experiment.

SMILES | EC50 (F508del in NIH 3T3 cells) [nM] | 3T3 Max Activity (F508del in NIH 3T3 cells) | also measured
Cc1cccc(C)c1-c1cc2nc(n1)NS(=O)(=O)c1cccc(c1)NC(=O)CCCCC2 [Compound 1, 6-(2,6-dimethylphenyl)-2,2-dioxo-2 λ6-thia-3,5,15,21-tetrazatricyclo[14.3.1.14,8]henicosa-1(20),4(21),5,7,16,18-hexaen-14-one] | < 1000 | +++ (+++ is >60%) | ring closure, yield after HPLC ([1]; from Cc1cccc(C)c1-c1cc(CCCCCC(=O)O)nc(NS(=O)(=O)c2cccc(N)c2)n1, 15-membered ring, HATU/DIEA, 33.5 mM, 25.0 °C, 0.083 h, 2 steps): 40%
Cc1cccc(C)c1-c1cc2nc(n1)NS(=O)(=O)c1cccc(c1)NC(=O)c1cccc(c1)C2 [Compound 2, 5-(2,6-Dimethylphenyl)-9 λ6-thia-6,8,15,23-tetraazatetracyclo [15.3.1.13,7.110,14]tricosa-1(21),3(23),4,6,10,12,14(22),17,19-nonaene-9,9,16-trione] | 1000 to 3000 | +++ (+++ is >60%) | ring closure, yield after HPLC ([1]; from Cc1cccc(C)c1-c1cc(Cc2cccc(C(=O)O)c2)nc(NS(=O)(=O)c2cccc(N)c2)n1, 14-membered ring, HATU/DIEA, 86.8 mM, 25.0 °C, 0.083 h, 3 steps): 14%
Cc1cccc(C)c1-c1cc2nc(n1)NS(=O)(=O)c1cccc(c1)C(=O)N(Cc1ncc(OC(C)C)cn1)[C@H](CC(C)(C)C)CC2 [Compound 62, (11S)-6-(2,6-Dimethylphenyl)-11-(2,2-dimethylpropyl)-12-[(5-isopropoxypyrimidin-2-yl)methyl]-2,2-dioxo-2 λ6-thia-3,5,12,19-tetrazatricyclo[12.3.1.14,8]nonadeca-1(18),4(19),5,7,14,16-hexaen-13-one] | – | – | HBE Max. activity ([2]; F508del/MF-HBE, in combination with 1 μM Ivacaftor, compared to known Vertex corrector with 18 μM Tezacaftor and 1 μM Ivacaftor): +++ (+++ is >60%); EC50 ([2]; F508del/MF-HBE, range of concentrations in combination with 1 μM Ivacaftor, 18-24 hours): < 1000 nM; ring closure, yield after HPLC ([1]; from Cc1cccc(C)c1-c1cc(CC[C@@H](CC(C)(C)C)NCc2ncc(OC(C)C)cn2)nc(NS(=O)(=O)c2cccc(C(=O)O)c2)n1, 13-membered ring, CDMT/NMM, 47.5 mM, 18.0 h): 79%
Cc1cccc(C)c1-c1cc2nc(n1)NS(=O)(=O)c1cccc(c1)C(=O)N(Cc1ncc(OC3CCC3)cn1)[C@H](CC(C)(C)C)CC2 [Compound 64, (11S)-12-[[5-(Cyclobutoxy)pyrimidin-2-yl]methyl]-6-(2,6-dimethylphenyl)-11-(2,2-dimethylpropyl)-2,2-dioxo-2λ6-thia-3,5,12,19-tetrazatricyclo[12.3.1.14,8]nonadeca-1(18),4(19),5,7,14,16-hexaen-13-one] | – | – | HBE Activity at 10 μM ([2]; single fixed concentration of 10 μM in combination with 1 μM Ivacaftor, 18-24 hours): +++ (+++ is >60%); ring closure, yield after HPLC ([1]; from Cc1cccc(C)c1-c1cc(CC[C@@H](CC(C)(C)C)NCc2ncc(OC3CCC3)cn2)nc(NS(=O)(=O)c2cccc(C(=O)O)c2)n1, 13-membered ring, CDMT/NMM, 44.1 mM, 17.0 h): 73%

More lines, main results first:

EC50 (F508del in NIH 3T3 cells) [nM] | 3T3 Max Activity (F508del in NIH 3T3 cells) | SMILES | also measured
1000 to 3000 | +++ (+++ is >60%) | Cc1cccc(C)c1-c1cc2nc(n1)NS(=O)(=O)c1cccc(c1)NC(=O)CCCC2 [Compound 12] | –
1000 to 3000 | +++ (+++ is >60%) | Cc1cccc(C)c1-c1cc2nc(n1)NS(=O)(=O)c1cccc(c1)NC(=O)CCC2 [Compound 13] | –
